Measured values: ChEMBL document CHEMBL1250449, “Aminoglycoside activity observed on single pre-translocation ribosome complexes” (Nat Chem Biol, 2010)
Calls of active or inactive are those of the source. No cut-off for these calls is given here. Numbered stars: 1 amine (or outer) side, 2 acyl side, 3 side chain; on linkers, the order of the positions; unused ones are H or OH. Bridge positions count the residues as written; N and C are the ends. Square brackets hold non-standard residues; d marks the D form. Peptide text beside a SMILES is read from it. * marks the point of attachment. X1 = NC1=N[C@@H]([C@H](N[*:1])C(=O)[*:2])C[C@H](O)N1; ΔAla(Z-3-ureido) = NC(=O)N/C=C(\N)C(=O)O; β3hOrn = NCCC[C@H](N)CC(=O)*; Dap = NC[C@H](N)C(=O)O

What was measured:
[1] = test system: Nucleic Acid; experiment: Binding affinity to Escherichia coli 23S rRNA assessed as increase in classical-state occupancy by tRNA at 20 uM by smFRET; type: nucleic-acid assay; conditions: MRE600
[2] = test system: Nucleic Acid; experiment: Binding affinity to Escherichia coli 16S rRNA helix 44 assessed as tRNA translocation rate; type: nucleic-acid assay; conditions: MRE600
[3] = test system: Nucleic Acid; experiment: Binding affinity to Escherichia coli 16S rRNA helix 44 assessed as classical-state occupancy by tRNA; type: nucleic-acid assay; parameters: concentration or dose not given beside the values; conditions: MRE600
[4] = test system: Nucleic Acid; experiment: Binding affinity to Escherichia coli 23S rRNA G2553C mutant assessed as increase in classical-state occupancy by tRNA at 20 uM by smFRET; type: nucleic-acid assay; conditions: MRE600
[5] = test system: Nucleic Acid; experiment: Binding affinity to Escherichia coli 16S rRNA helix 44 assessed as reduction in rate of tRNA exit from classical state at 100 nM; type: nucleic-acid assay; conditions: MRE600
[6] = test system: Nucleic Acid; experiment: Binding affinity to Escherichia coli 23S rRNA assessed as decrease in classical-state occupancy by tRNA at 20 uM by smFRET; type: nucleic-acid assay; parameters: scale not given: the % may be the effect or the level left; conditions: MRE600
[7] = test system: Nucleic Acid; experiment: Binding affinity to Escherichia coli 23S rRNA H69 assessed as classical-state occupancy by tRNA at 20 uM (Rvb= 62.4+/-1.1%); type: nucleic-acid assay; conditions: MRE600
[8] = test system: Nucleic Acid; experiment: Binding affinity to Escherichia coli 23S rRNA H69 assessed as tRNA translocation rate at 20 uM (Rvb= 1.57+/-0.05 /sec); type: nucleic-acid assay; conditions: MRE600
[9] = test system: Nucleic Acid; experiment: Binding affinity to Escherichia coli 16S rRNA helix 44 assessed as reduction in rate of tRNA translocation at 100 nM; type: nucleic-acid assay; conditions: MRE600
[10] = test system: Nucleic Acid; experiment: Binding affinity to Escherichia coli 16S rRNA helix 44 assessed as increase in classical-state occupancy by tRNA at 100 nM by smFRET; type: nucleic-acid assay; conditions: MRE600
[11] = test system: Nucleic Acid; experiment: Binding affinity to Escherichia coli 16S rRNA helix 44 assessed as classical-state occupancy by tRNA at 100 nM (Rvb= 62.4+/-1.1%); type: nucleic-acid assay; conditions: MRE600
[12] = test system: Nucleic Acid; experiment: Binding affinity to Escherichia coli 16S rRNA helix 44 assessed as decrease in classical-state occupancy by tRNA at 20 uM by smFRET; type: nucleic-acid assay; parameters: scale not given: the % may be the effect or the level left; conditions: MRE600
[13] = test system: Nucleic Acid; experiment: Binding affinity to Escherichia coli 16S rRNA helix 44 assessed as tRNA translocation rate at 100 nM (Rvb= 1.57+/-0.05 /sec); type: nucleic-acid assay; conditions: MRE600
[14] = biological target: T1, Bacterial 70S ribosome (Bacteria) (UniProt P0A7V0+P60723+P0AG67+P0A7R5+P0A7R9+P0A7S3+P0A7S9+P0AG59+P0ADZ4+P0A7T3+P0AG63+P0A7T7+P0A7U3+P0A7U7+P68679+P0A7V3+P0A7V8+P0A7W1+P02358+P02359+P0A7W7+P0A7X3+P0A7J3+P0A7J7+P0AA10+P0ADY3+P02413+P0ADY7+P0AG44+P0C018+P0A7K6+P0A7L0+P0A7L3+P0AG48+P61175+P0ADZ0+P60624+P68919+P0A7L8+P0A7M2+P0A7M6+P60422+P0AG51+P0A7N1+P0A7M9+P0A7N4+P0A7N9+P0A7P5+P0A7Q1+Q2EEQ2+P0A7Q6+P60438+P62399+P0AG55+P0A7K2); experiment: Binding affinity to Escherichia coli ribosomal pre-translocation complex assessed as stabilization of hybrid-state occupancy by tRNA at <2 uM; conditions: MRE600
[15] = biological target: T1, Bacterial 70S ribosome (Bacteria); experiment: Binding affinity to Escherichia coli ribosomal pre-translocation complex assessed as decreased rate of EF-G-catalyzed translocation by tRNA at <2 uM; conditions: MRE600
[16] = biological target: T1, Bacterial 70S ribosome (Bacteria); experiment: Binding affinity to Escherichia coli ribosomal pre-translocation complex assessed as stabilization of hybrid-state occupancy by tRNA at 100 nM; conditions: MRE600
[17] = biological target: T1, Bacterial 70S ribosome (Bacteria); experiment: Binding affinity to Escherichia coli ribosomal pre-translocation complex assessed as decreased rate of EF-G-catalyzed translocation fraction by tRNA at 100 nM; conditions: MRE600
[18] = test system: Nucleic Acid; experiment: Binding affinity to Escherichia coli ribosomal pre-translocation complex assessed as tRNA translocation rate at 200 uM (Rvb= 1.57+/-0.05 /sec); type: nucleic-acid assay; conditions: MRE600
[19] = biological target: T1, Bacterial 70S ribosome (Bacteria); experiment: Binding affinity to Escherichia coli ribosomal pre-translocation complex assessed as stabilization of classical-state occupancy by tRNA at 200 uM; conditions: MRE600
[20] = test system: Nucleic Acid; experiment: Binding affinity to Escherichia coli ribosomal pre-translocation complex assessed as classical-state occupancy by tRNA at 200 uM (Rvb= 62.4+/-1.1%); type: nucleic-acid assay; conditions: MRE600
[21] = biological target: T1, Bacterial 70S ribosome (Bacteria); experiment: Binding affinity to Escherichia coli ribosomal pre-translocation complex assessed as stabilization of hybrid-state occupancy by tRNA at 2 uM; conditions: MRE600
[22] = biological target: T1, Bacterial 70S ribosome (Bacteria); experiment: Binding affinity to Escherichia coli ribosomal pre-translocation complex assessed as decreased rate of EF-G-catalyzed translocation by tRNA at 100 nM; conditions: MRE600
[23] = test system: Nucleic Acid; experiment: Binding affinity to Escherichia coli 16S rRNA helix 44 assessed as increase in classical-state occupancy by tRNA at >=20 uM by smFRET; type: nucleic-acid assay; conditions: MRE600
[24] = test system: Nucleic Acid; experiment: Binding affinity to Escherichia coli 23S rRNA G2553C mutant assessed as increase in classical-state occupancy by tRNA by smFRET; type: nucleic-acid assay; conditions: MRE600
[25] = test system: Nucleic Acid; experiment: Binding affinity to Escherichia coli 16S A1408G rRNA assessed as increase in classical-state occupancy by tRNA by smFRET; type: nucleic-acid assay; conditions: MRE600
[26] = test system: Nucleic Acid; experiment: Binding affinity to Escherichia coli 23S rRNA assessed as stabilization of classical state occupancy by tRNA by smFRET; type: nucleic-acid assay, MRE600
[27] = test system: Nucleic Acid; experiment: Binding affinity to Escherichia coli 16S rRNA helix 44 assessed as stabilization of classical state occupancy by tRNA by smFRET; type: nucleic-acid assay, MRE600
[28] = test system: Nucleic Acid; experiment: Binding affinity to Escherichia coli 16S rRNA helix 44 assessed as increase in classical-state occupancy by tRNA at 20 nM to 200 uM by smFRET; type: nucleic-acid assay; conditions: MRE600
[29] = test system: Nucleic Acid; experiment: Binding affinity to Escherichia coli 16S rRNA helix 44 assessed as increase in classical-state occupancy by tRNA by smFRET; type: nucleic-acid assay; conditions: MRE600, TDE = time-dependent effect
[30] = test system: Escherichia coli; experiment: Stabilization of classical-state occupancy by tRNA in ribosomal pre-translocation complex in Escherichia coli MRE600 expressing 16S A1408G and 23S G2553C rRNA mutant by smFRET; type: functional
[31] = test system: Escherichia coli; experiment: Increase in hybrid-state occupancy by tRNA in ribosomal pre-translocation complex in Escherichia coli MRE600 by smFRET method in presence of 10 uM neomycin; type: functional
[32] = test system: Nucleic Acid; experiment: Binding affinity to Escherichia coli 23S rRNA H69 assessed as increase in classical-state occupancy by tRNA by […]; type: nucleic-acid assay; conditions: MRE600
[33] = test system: Escherichia coli; experiment: Increase in classical-state occupancy by tRNA in ribosomal pre-translocation complex in Escherichia coli MRE600 by smFRET method in presence of 200 nM neomycin; type: functional, organism-based
[34] = test system: Escherichia coli; experiment: Increase in hybrid-state occupancy by tRNA in ribosomal pre-translocation complex in Escherichia coli MRE600 by smFRET method in presence of 20 uM neomycin; type: functional, organism-based
[35] = test system: Nucleic Acid; experiment: Binding affinity to Escherichia coli 16S rRNA helix 44 assessed as increase in classical-state occupancy by tRNA by […]; type: nucleic-acid assay, MRE600

Molecule CN[C@@H]1[C@@H](O)[C@@H](O[C@@H]2[C@@H](O)[C@H](O[C@H]3O[C@H]([C@@H](C)N)CC[C@H]3N)[C@@H](N)C[C@H]2N)OC[C@]1(C)O has an Activity [1] of 5%, an Activity [2] of 0.42 s⁻¹ and an Activity [3] of 67.2%. It also gave an Activity [4] of 18%.

With CN[C@@H]1[C@@H](O)[C@@H](O[C@@H]2[C@@H](O)[C@H](O[C@H]3O[C@H]([C@@H](C)NC)CC[C@H]3N)[C@@H](N)C[C@H]2N)OC[C@]1(C)O the Activity [1] was 5%, the Activity [2] was 0.42 s⁻¹ and the Activity [3] was 67.2%. For the same molecule, the Activity [4] was 14%.

In the case of NC[C@@H]1O[C@H](O[C@H]2[C@@H](O)[C@H](O[C@@H]3[C@@H](O)[C@H](N)C[C@H](N)[C@H]3O[C@H]3O[C@H](CN)[C@@H](O)[C@H](O)[C@H]3N)O[C@@H]2CO)[C@H](N)[C@@H](O)[C@@H]1O, the fold change (FC) [5] is reported as 1.5, the Activity [6] is reported as 10% and the Activity [7] is reported as 52%. The Activity [8] was 0.06 s⁻¹, the fold change (FC) [9] was 3 and the Activity [10] was 6%. The Activity [11] was 70.3%, the Activity [12] was 10% and the Activity [13] was 0.31 s⁻¹.

In the case of NC[C@@H]1O[C@H](O[C@H]2[C@@H](O)[C@H](O[C@@H]3[C@@H](O)[C@H](N)C[C@H](N)[C@H]3O[C@H]3O[C@H](CO)[C@@H](O)[C@H](O)[C@H]3N)O[C@@H]2CO)[C@H](N)[C@@H](O)[C@@H]1O, the Activity [1] is reported as 2%, the Activity [2] is reported as 0.51 s⁻¹ and the Activity [3] is reported as 63.9%. For the same molecule, the Activity [4] was 12%.

NCCC[C@H](N)CC(=O)N[C@H]1CNC(=O)[C@H]([C@H]2C[C@H](O)NC(N)=N2)NC(=O)/C(=C/NC(N)=O)NC(=O)[C@H](CO)NC(=O)[C@H](CO)NC1=O (β3hOrn-[Dap]SS[ΔAla(Z-3-ureido)][X1]; lactam 1-C) was tested, and the Activity [14] was “Active”, the Activity [15] was “Active” and the Activity [16] was 10%. For the same molecule, the fold change (FC) [17] was 2, the Activity [18] was 0.04 s⁻¹ and the Activity [19] was “Active”. For the same molecule, the Activity [20] was 46.8%, the Activity [21] was “Active” and the fold change (FC) [22] was 1.5.

With NC[C@H]1O[C@H](O[C@H]2[C@H](O)[C@@H](O[C@H]3O[C@H](CO)[C@@H](O)[C@H](N)[C@H]3O)[C@H](N)C[C@@H]2N)[C@H](N)[C@@H](O)[C@@H]1O [BEKANAMYCIN] the Activity [23] was “Active”, the Activity [1] was 8% and the Activity [24] was 25%. The Activity [25] was “inactive”, the Activity [2] was 0.27 s⁻¹ and the Activity [3] was 69.6%. For the same molecule, the EC50 [26] was 300 nM, the EC50 [27] was 300 nM and the Activity [28] was “Dose-dependent effect”. The Activity [29] was “tde”, the Activity [4] was 25% and the Activity [30] was 10%.

With NC[C@@H]1O[C@@H](O[C@H]2[C@H](O)[C@@H](O[C@H]3O[C@H](CO)[C@@H](O)[C@H](N)[C@H]3O)[C@H](N)C[C@@H]2N)[C@@H](O)[C@H](O)[C@H]1O [KANAMYCIN A] the Activity [23] was “Active”, the Activity [1] was 8% and the Activity [24] was 25%. For the same molecule, the Activity [25] was “inactive”, the Activity [2] was 0.27 s⁻¹ and the Activity [3] was 69.6%. For the same molecule, the EC50 [26] was 300 nM, the EC50 [27] was 300 nM and the Activity [28] was “Dose-dependent effect”. For the same molecule, the Activity [29] was “tde”, the Activity [4] was 25% and the Activity [30] was 10%.

For COc1ccc(C[C@H](N)C(=O)N[C@H]2[C@@H](O)[C@H](n3cnc4c(N(C)C)ncnc43)O[C@@H]2CO)cc1 [PUROMYCIN], the Activity [31] was 25%, the Activity [32] was > 1 µM and the Activity [33] was “Active”. For the same molecule, the Activity [34] was “Active” and the EC50 [35] was 100 nM.
